Data from patent US20120122870A1, “Treatment Of Ischemia-Reperfusion Injury” (MUSC FOUNDATION FOR RESEARCH DEVELOPMENT, priority 2009, published 2012).

Key:
recombinant human SK = biological target: T1, recombinant human SK (Homo sapiens, UniProt Q9NYA1); experiment: Recombinant human SK activity assay ([3H]sphingosine to [3H]S1P); type: biochemical; conditions: Human SK incubated with 6 μg/mL of compound; percentage of SK activity inhibited
T1 construct: GST (glutathione-S-transferase) (N); made in house; host or cells: bacteria (pGEX bacterial expression vector)

[1] = test system: endogenous SK activity in MDA-MB-231 cells; experiment: Cellular S1P production (endogenous SK activity) in MDA-MB-231 cells; type: cell-based; conditions: for Cellular S1P (% inhibition): MDA-MB-231 cells incubated with 20 μg/mL of compound; for Cellular S1P (% inhibition) / inhibition at 20 µg/mL: percentage of S1P production inhibited; for inhibition at 20 µg/mL: MDA-MB-231, MDA-MB-231 cells incubated with 20 μg/mL of compound
Summary of the method: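 MDA-MB-231 cells treated with 20 μg/mL compound and assayed for endogenous SK activity, reported as % inhibition of S1P production. For IC50, cells received varying compound concentrations and S1P produced was measured; IC50 is the concentration giving 50% inhibition.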

T1 sequence (Q9NYA1 whole entry): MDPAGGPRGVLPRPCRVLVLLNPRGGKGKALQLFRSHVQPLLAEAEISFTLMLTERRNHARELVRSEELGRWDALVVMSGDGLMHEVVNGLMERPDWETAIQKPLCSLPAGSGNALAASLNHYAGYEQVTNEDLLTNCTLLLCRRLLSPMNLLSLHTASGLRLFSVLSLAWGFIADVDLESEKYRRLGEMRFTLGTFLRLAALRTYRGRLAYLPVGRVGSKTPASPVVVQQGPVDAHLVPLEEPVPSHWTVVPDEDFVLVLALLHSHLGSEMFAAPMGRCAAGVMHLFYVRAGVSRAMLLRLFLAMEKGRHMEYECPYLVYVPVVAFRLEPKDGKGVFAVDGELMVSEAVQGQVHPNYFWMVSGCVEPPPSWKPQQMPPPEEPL

| Recombinant SK (% inhibition) (recombinant human SK) | inhibition at 6 µg/mL (recombinant human SK) | IC50 ([1]; Homo sapiens, MDA-MB-231 cells, varying concentrations, concentration inhibiting S1P production by 50%) | Structure (SMILES) | Cellular S1P (% inhibition) [1] | inhibition at 20 µg/mL ([1]; Homo sapiens) |
| --- | --- | --- | --- | --- | --- |
| – | 33% | 51 µM | CCn1c2ccccc2c2cc(NC(C)C34CC5CC(CC(c6ccc(Cl)cc6)(C5)C3)C4)ccc21 (centres unmarked) [A114, {1-[3-(4-Chloro-phenyl)-adamantan-1-yl]-ethyl}-(9-ethyl-9H-carbazol-3-yl)-amine] | – | 46% |
| – | 77% | – | CC(NC(=O)Nc1ccc(Cl)c(C(F)(F)F)c1)C12CC3CC(CC(c4ccc(Cl)cc4)(C3)C1)C2 (centres unmarked) [A118, 1-{1-[3-(4-Chloro-phenyl)-adamantan-1-yl]-ethyl}-3-(4-chloro-3-trifluoromethyl-phenyl)-urea] | – | 5% |
| 88% | – | – | CCCCCCCCCCCCCCCC(=O)Nc1nc(-c2ccc(Cl)cc2)cs1 [B3, Hexadecanoic acid [4-(4-chloro-phnyl)-thiazol-2-yl]-amide] | 34% | – |

The next lines start with the compound.

| Structure (SMILES) | Recombinant SK (% inhibition) (recombinant human SK) | inhibition at 6 µg/mL (recombinant human SK) | IC50 ([1]; Homo sapiens, MDA-MB-231 cells, varying concentrations, concentration inhibiting S1P production by 50%) | Cellular S1P (% inhibition) [1] | inhibition at 20 µg/mL ([1]; Homo sapiens) |
| --- | --- | --- | --- | --- | --- |
| CCn1c2ccccc2c2cc(NCC34CC5CC(C3)CC(c3ccc(Cl)cc3)(C5)C4)ccc21 [A89, [3-(4-Chloro-phenyl)-admantan-1-ylmethyl]-(9-ethyl-9H-carbazol-3-yl)-amine] | 37% | – | – | 1% | – |
| Clc1ccc(-c2cnc(NCC34CC5CC(C3)CC(c3ccc(Cl)cc3)(C5)C4)s2)cc1 [A90, [3-(4-Chloro-phenyl)-adamantan-1-ylmethyl]-[5-(4-chloro-phenyl)-thiazol-2-yl]-amine] | – | 26% | – | – | 16% |
